# Paper PMC12210912, “Pharmacologic properties and inhibitory activity of 6-azasteroids against Mycobacterium leprae in vivo and in vitro” (Microbiology Spectrum, 2025)
# How the values were obtained:
# [1] = in vivo pharmacokinetics in CD1 male mice; conditions: for bioavailability: male, CD1, mouse, oral, 5 mg/kg, read-out: F (bioavailability); for Cmax / Tmax / half-life: mouse
# Procedure: Experiments were performed by Pharmaron, Inc. The metabolism and pharmacokinetics of the 6-azasteroids were studied in CD1 male mice approximately 8 weeks old and 20–30 g. […] Each group contained three mice. Blood samples were collected in anticoagulant tubes containing potassium ethylenediaminetetraacetic acid.
# Four quality control samples (1, 2, 50, and 800 ng/mL) for plasma were prepared independently of those used for the calibration curves. These quality control samples were prepared on the day of analysis in the same way as the calibration standards. An aliquot (33 µL) of each standard, quality control sample, and unknown sample (30 µL of plasma combined with 3 µL of blank solution) was added to 200 µL of acetonitrile containing an internal standard mixture for precipitating protein. […] The supernatant was diluted three times with water. Diluted supernatant (5 µL) was quantitatively analyzed by LC-MS/MS (API 4000 Triple Quad—AB Sciex, Canada; LC-30A HPLC—Shimadzu, Japan). Non-compartmental pharmacokinetic analysis was performed with Phoenix WinNonlin software (ver. 6.1, Certara, US) using composite data.
# [2] = compound plasma concentration in Balb/c mice by LC-MS; type: in vivo; conditions: 50 mg/kg; for plasma level at the end of the experiment with infected mice: Balb/c mice, 6 h after last dose, alone or with rifampicin
# Procedure: Animal experimentation was conducted under approval by the ILSL ethical committee (CEUA ILSL 02/19). Balb/c female mice with 8-week-old were inoculated with 5 × 10^3 live M. leprae bacilli, strain Thai-53, in both hind footpads, as previously described for the Shepard’s model ([25]). Eight groups were tested in the experiment: (i) M. leprae control group (n = 5) inoculated with M. leprae and no additional treatment; (ii) vehicle control group (n = 4) inoculated with M. leprae and treatment with vehicle of the drugs; (iii) regular rifampicin treatment, 10 mg/Kg dose; (iv) sub-inhibitory rifampicin, 1 mg/kg dose (n = 5); (v) compound 2 treatment (n = 4), 50 mg/kg dose; (vi) compound 2 with sub-inhibitory rifampicin (n = 5), 50 mg/kg dose of compound 2 and 1 mg/kg dose of rifampicin; (vii) compound 5 treatment (n = 5), 50 mg/kg dose; and (viii) compound 5 with sub-inhibitory rifampicin (n = 5), 50 mg/kg dose of compound 5 and 1 mg/kg dose of rifampicin. One month after inoculation, mice from the control group were euthanized and the hind footpad was collected to assess the establishment of the infection by bacillary enumeration. At that time point, vehicle or drug treatment was started for the remaining groups. All compounds were administrated by gavage, rifampicin was administered weekly, and the compounds were administered daily (excluding weekends) for 1 month (20 doses). Mice were euthanized 6 h after administration of the last dose, and blood was collected in heparin-coated tubes by cardiac puncture for blood enzyme evaluation and compound 5 measurement by LC/MS in the plasma. The infected hind footpads from each group of mice were excised, homogenized and bacilli enumerated in a 100 µL aliquot as previously described ([26]). […]
# Uninfected Balb/c female mice (n = 36), approximately 8 weeks old and 20 g, were divided into three groups. […] Concentrations of compound 5 in plasma were determined by LC/MS.
# Compound 5 quantification in the plasma was performed on lipid extracts from plasma samples. […]
# [3] = plasma, 5 mg/kg PO vs 1 mg/kg IV
Structure (SMILES),AUCinf ([1]; 1 mg/kg IV),Clobs (observed clearance) ([1]; 1 mg/kg IV),"AUCinf ([1]; 5 mg/kg PO, plasma)",time by which most of the compound was cleared from plasma ([1]; PO administration) [h],"bioavailability [1, 3] [%]","Cmax ([1]; 5 mg/kg PO, plasma) [ng/mL]","Tmax ([1]; 5 mg/kg PO, plasma) [min]","half-life ([1]; 5 mg/kg PO, plasma) [min]","Cmax ([1]; plasma, 1 mg/kg IV) [ng/mL]","Tmax ([1]; plasma, 1 mg/kg IV) [min]",plasma level at the end of the experiment with infected mice [2],F (bioavailability) ([1]; 5 mg/kg PO vs 1 mg/kg IV) [%],compound remaining in plasma after 6 h ([1]; PO administration),in vivo t1/2 relative to compound 1 ([1]; longer than compound 1),"plasma levels over 4 weeks, alone vs in combination with rifampicin ([2]; non-infected Balb/c mice, rifampicin 1 mg/kg, weekly time points)"
CC(C)(C)c1ccc(C(C)(C)C)c(NC(=O)C2CCC3C4CNC5=CC(=O)CC[C@]5(C)C4CC[C@]23C)c1 (stereo partly shown) [Compound 1],356 ng·h/g,46.8 (mL/min)/kg,822.1 ng·h/g,≤ 4,46.2,501,30,60,803,38.5,–,–,–,–,–
CCCN1CC2C3CCC(C(=O)Nc4cc(C(C)(C)C)ccc4C(C)(C)C)[C@@]3(C)CCC2[C@@]2(C)CCC(=O)C=C12 (stereo partly shown) [Compound 2],–,–,–,–,–,–,–,–,–,–,detectable levels,–,–,–,–
C[C@]12CCC3C(CNC4=CC(=O)CC[C@@]43C)C1CCC2C(=O)NC(c1ccc(F)cc1)c1ccc(F)cc1 (stereo partly shown) [Compound 5],"3,123 h·ng/g",5.34 (mL/min)/kg,"18,566 h·ng/g",–,119,2210,30,168,838,156,detectable levels,118.9,more than 50%,approximately 2.5 fold,no significant differences
